Experimental data: patent US20100285140A1, “ANTIMICROBIAL AGENT FOR GRAM-POSITIVE BACTERIA” (priority 2007, published 2010)
≈ marks a conversion by molar mass, not a printed value.

How the values were obtained:
Experiment in all cases: broth microdilution MIC/MBC
Format in all cases: cell-based
MSSA JCM2874 = conditions: Staphylococcus aureus, ABPC
MSSA ATCC6538 = conditions: Staphylococcus aureus, ABPC
MRSA N315 = conditions: Staphylococcus aureus, ABPC
MRSA JCM8703 = conditions: Staphylococcus aureus, ABPC
[1] = test system: MRSA clinical isolate 1801 blaZ(−); conditions: Staphylococcus aureus, ABPC
[2] = test system: MRSA clinical isolate 2022 blaZ(−); conditions: Staphylococcus aureus, ABPC
[3] = test system: MRSA clinical isolate 2005 blaZ(+); conditions: Staphylococcus aureus, ABPC
[4] = test system: MRSA clinical isolate 2526 blaZ(+); conditions: Staphylococcus aureus, ABPC
VSE5804 = conditions: Enterococcus, ABPC
Experimental: Ampicillin (ABPC) was used as a positive control. The measurement was carried out in accordance with a broth microdilution method (NCCLS). […] These serial dilutions were placed in a 96-well plate, and a bacterial strain was added to each well at an amount of 10^5 CFU/ml, followed by incubation at 35° C. for 18 hours. In the case where turbidity was visually observed, it was judged that the bacterial strain grew. The lowest concentration at which the bacterial growth was not observed was defined as MIC. A solution was collected from the well in which bacterial growth was not observed, added to an antibiotic-free medium, and then incubated at 35° C. for 18 hours, followed by visually observing existence of turbidity. The lowest concentration at which turbidity was not observed was defined as MBC. Values in the tables are: ABPC, μg/ml; polymer particles, mg/ml. Numbers in the parentheses indicate the dilution factor.

VRE GTC02000 = conditions: Enterococcus, ABPC

CC1(C)S[C@@H]2[C@H](NC(=O)[C@H](N)c3ccccc3)C(=O)N2[C@H]1C(=O)O [ABPC, Ampicillin]
MBC (MSSA JCM2874): 2 µg/mL (≈ 5.72 µM) | MIC (MSSA JCM2874): 2 µg/mL (≈ 5.72 µM) | MBC (MSSA ATCC6538): 0.063 µg/mL (≈ 0.18 µM) | MIC (MSSA ATCC6538): 0.063 µg/mL (≈ 0.18 µM) | MBC (MRSA N315): 32 µg/mL (≈ 91.6 µM) | MBC (MRSA JCM8703): 64 µg/mL (≈ 183 µM) | MIC (MRSA JCM8703): 64 µg/mL (≈ 183 µM) | MBC [1]: 16 µg/mL (≈ 45.8 µM) | MIC [1]: 16 µg/mL (≈ 45.8 µM) | MBC [2]: 16 µg/mL (≈ 45.8 µM) | MIC [2]: 16 µg/mL (≈ 45.8 µM) | MBC [3]: 64 µg/mL (≈ 183 µM) | MIC [3]: 64 µg/mL (≈ 183 µM) | MBC [4]: 64 µg/mL (≈ 183 µM) | MIC [4]: 64 µg/mL (≈ 183 µM) | MBC (VSE5804): 0.5 µg/mL (≈ 1.43 µM) | MIC (VSE5804): 0.5 µg/mL (≈ 1.43 µM) | MBC (VRE GTC02000): 1 µg/mL (≈ 2.86 µM) | MIC (VRE GTC02000): 1 µg/mL (≈ 2.86 µM)
